Reference: patent US7968721B2, “Large-scale synthesis of selective androgen receptor modulators” (University of Tennessee Research Foundation, priority 2003, dated 2011)

Tests used:
[1] = tested on: spermatogenesis; details: weekly intramuscular injections, men receiving therapy; cited from earlier work
[2] = tested on: androgen receptor
Source text: Assays to determine whether the compounds of the present invention are AR agonists or antagonists are well known to a person skilled in the art. For example, AR agonistic activity can be determined by monitoring the ability of the SARM compounds to maintain and/or stimulate the growth of AR containing tissue such as prostate and seminal vesicles, as measured by weight. AR antagonistic activity can be determined by monitoring the ability of the SARM compounds to inhibit the growth of AR containing tissue.

| SMILES | men with azoospermia or severe oligospermia (less than 3 million sperm per ml) and infertility [1] [%] | action at the androgen receptor in vivo [2] | anabolic and androgenic effects in vivo [2] |
| --- | --- | --- | --- |
| CCCCCCC(=O)O[C@H]1CC[C@H]2[C@@H]3CCC4=CC(=O)CC[C@]4(C)[C@H]3CC[C@]12C [testosterone enanthate] | 98 |  |  |
| CC(=O)Nc1ccc(OC[C@](C)(O)C(=O)Nc2ccc([N+](=O)[O-])c(C(F)(F)F)c2)cc1 [Compound (1), 3-[4-(acetylamino)phenoxy]-2-Hydroxy-2-methyl-N-[3trifluoromethyl-4-nitro-phenyl)-proprionamide] |  | partial agonist | strong anabolic and weakly androgenic effects |
